In PubChem BioAssay AID2060904 (Molecular Pharmacology Branch, DTP, NCI, 2025):
Blank lines part the entries; values can stand above or below the molecule they belong to.

Test system: 349418-098-R-PDC complex spheroid viability
Experiment: Anticancer human tumor 349418-098-R-PDC patient-derived lung adenocarcinoma cell line growth inhibition [RAS]
Details: for IC50: curve of first compound; for viability, T/C: stronger effect = lower value
Description: RAS pathway inhibitors in Combinations in Complex Spheroids
A high-throughput screen of multi-cell type tumor spheroids was designed to identify active combinations of RAS pathway inhibitors and targeted small molecules. Complex spheroids include a stromal component modeled by human endothelial cells (HUVEC) and fibroblasts modeled by human mesenchymal stem cells (MSCs). The concentration ranges selected for each drug and investigational agent were based upon clinically achievable concentrations if the clinical Cmax of the agent was known.
Compounds. The drugs and investigational agents: abemaciclib (NSC768073), cobimetinib (NSC768068), divarasib (GDC6063, NSC841802), docetaxel (NSC628503), GDC-1971 (RLY-1971, NSC841576), gemcitabine (NSC613327), inavolisib (NSC800729), ipatasertib (NSC767898), KB-0742 (NSC834161), MRTX-1133 (NSC836407), osimertinib (NSC779217), RMC-4630 (NSC839698), RMC-6236 (NSC851965), RMC-6291 (NSC852671), Ro-3306 (NSC812927), sapanisertib (NSC764658), SN-38 (NSC673596), staurosporine (NSC755774), SY5609 (NSC837396), and tovorafenib (DAY101, NSC766906), were obtained from the National Cancer Institute (NCI) Developmental Therapeutics Program Chemical Repository. The FDA-approved anticancer drug set is available from the NCI Developmental Therapeutics Program. […] The stock solutions were prepared in dimethyl sulfoxide (DMSO, Sigma-Aldrich, St. Louis, MO, cat. D2650) at 800-fold the tested concentration and stored at -70 degrees C prior to their use. All drugs and investigational agents were tested over a range starting from a high concentration at or near the clinical Cmax and decreasing in half-log increments. If the clinical Cmax for an agent had not been determined, the highest concentration tested was 10 microM.
Cell Culture. All cells were maintained in an incubator at 37 degrees C and 5% CO2 with 95% humidity. The PDC lines were cultured according to standard operating procedures established by the NCI PDMR. All PDCs were thawed and cultured in Matrigel-coated flasks prepared with a working solution of 1X Ham's F-12 nutrient mix, without supplementation (Invitrogen, Waltham, MA, cat. 11765054), 100 U/mL penicillin-streptomycin (Invitrogen, cat. 15140122), and 2.5% Matrigel (Corning Inc., Corning, NY, cat. 354248) for the first three passages. The 362531-283-R-J2-PDC and 782815-120-R-J1-PDC lines were cultured in 6C/Colon 1B media, which includes advanced DMEM/F-12 (Thermo Fisher Scientific, cat. 12634028), 10 mM HEPES (Thermo Fisher Scientific, cat. 15630080), 1X GlutaMAX supplement (Thermo Fisher Scientific, cat. 35050061), 0.1 mg/mL primocin (InvivoGen, San Diego, CA, cat. ant-pm-2), 10% defined fetal bovine serum, heat inactivated (HyClone Laboratories Inc., Logan, UT, cat. SH30070.03HI), 50% L-WRN conditioned media (ATCC, cat. CRL-3276), 1.25 mM N-Acetyl-L-cysteine (Sigma-Aldrich, cat. A9165), 10 mM nicotinamide (Sigma-Aldrich, cat. N0636), 1X B-27 supplement (Thermo Fisher Scientific, cat. 17504044), 1X N-2 supplement (Thermo Fisher Scientific, cat. 17502048), 50 ng/mL human EGF (Thermo Fisher Scientific, cat. PHG0311), and 10 microM Y-27632 dihydrochloride (Tocris Bioscience, cat. 1254). The K12877-001-R-J1-PDC line was cultured in 6I media, which includes all 6C/Colon 1B media plus 10 ng/mL human FGF-10 (PeproTech, cat. 100-26), 1 ng/mL human FGF-2 (PeproTech, cat. 100-18B), 1 µM prostaglandin E2 (Tocris Bioscience, cat. 2296), […] hydrocortisone (Sigma-Aldrich, cat. H4001), and […] bovine insulin (Sigma-Aldrich, cat. I6634). The K86415-001-R-J1-PDC line was cultured in 6D media, which includes all 6C/Colon 1B media components minus the L-WRN conditioned media. The 485176-168-R4-J1-PDC was cultured in PANC media, which includes all 6C/Colon 1B media plus 100 ng/mL human FGF-10 (PeproTech, cat. 100-26), 500 nM SB-431542 (Selleckchem, cat. S1067), and 10 nM gastrin (Tocris Bioscience, cat. 3006). […]

[1] = second compound 0.0316 µM, first compound 0.0316 µM
[2] = second compound 0.0316 µM, first compound 0.1 µM
[3] = second compound 0.0316 µM, first compound 0.316 µM
[4] = second compound 0.0316 µM, first compound 1 µM
[5] = second compound 0.0316 µM, first compound 3.16 µM
[6] = second compound 0.0316 µM, first compound 10 µM
[7] = second compound 0.1 µM, first compound 0.0316 µM
[8] = second compound 0.1 µM, first compound 0.1 µM
[9] = second compound 0.1 µM, first compound 0.316 µM
[10] = second compound 0.1 µM, first compound 1 µM
[11] = second compound 0.1 µM, first compound 3.16 µM
[12] = second compound 0.1 µM, first compound 10 µM
[13] = second compound 0.316 µM, first compound 0.0316 µM
[14] = second compound 0.316 µM, first compound 0.1 µM
[15] = second compound 0.316 µM, first compound 0.316 µM
[16] = second compound 0.316 µM, first compound 1 µM
[17] = second compound 0.316 µM, first compound 3.16 µM
[18] = second compound 0.316 µM, first compound 10 µM
[19] = second compound 1 µM, first compound 0.0316 µM
[20] = second compound 1 µM, first compound 0.1 µM
[21] = second compound 1 µM, first compound 0.316 µM
[22] = second compound 1 µM, first compound 1 µM
[23] = second compound 1 µM, first compound 3.16 µM
[24] = second compound 1 µM, first compound 10 µM
[25] = second compound 3.16 µM, first compound 0.0316 µM
[26] = second compound 3.16 µM, first compound 0.1 µM
[27] = second compound 3.16 µM, first compound 0.316 µM
[28] = second compound 3.16 µM, first compound 1 µM
[29] = second compound 3.16 µM, first compound 3.16 µM
[30] = second compound 3.16 µM, first compound 10 µM
[31] = second compound 10 µM, first compound 0.0316 µM
[32] = second compound 10 µM, first compound 0.1 µM
[33] = second compound 10 µM, first compound 0.316 µM
[34] = second compound 10 µM, first compound 1 µM
[35] = second compound 10 µM, first compound 3.16 µM
[36] = second compound 10 µM, first compound 10 µM
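Note: spheroids exposed to compound for seven days before viability readout.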

IC50 (second compound 0.0316 µM): > 10 µM
IC50 (second compound 0.1 µM): > 10 µM
IC50 (second compound 0.316 µM): > 10 µM
IC50 (second compound 1 µM): > 10 µM
IC50 (second compound 3.16 µM): > 10 µM
IC50 (second compound 10 µM): > 10 µM
Compound: Cc1nc(N2CCC3(CC2)COC(C)C3N)c(CO)nc1Sc1ccnc(N)c1Cl (stereo unspecified) + C#Cc1c(F)ccc2cc(O)cc(-c3ncc4c(N5CC6CCC(C5)N6)nc(OCC56CCCN5CC(F)C6)nc4c3F)c12
viability, T/C [1]: 102%
viability, T/C [2]: 108%
viability, T/C [3]: 105%
viability, T/C [4]: 63.1%
viability, T/C [5]: 86%
viability, T/C [6]: 71.2%
viability, T/C [7]: 112%
viability, T/C [8]: 90.8%
viability, T/C [9]: 98.2%
viability, T/C [10]: 88.8%
viability, T/C [11]: 108%
viability, T/C [12]: 86%
viability, T/C [13]: 94.3%
viability, T/C [14]: 88%
viability, T/C [15]: 101%
viability, T/C [16]: 104%
viability, T/C [17]: 104%
viability, T/C [18]: 67.3%
viability, T/C [19]: 89.4%
viability, T/C [20]: 94.6%
viability, T/C [21]: 87%
viability, T/C [22]: 83.2%
viability, T/C [23]: 111%
viability, T/C [24]: 71.9%
viability, T/C [25]: 59.6%
viability, T/C [26]: 108%
viability, T/C [27]: 101%
viability, T/C [28]: 62.2%
viability, T/C [29]: 114%
viability, T/C [30]: 80.3%
viability, T/C [31]: 75.4%
viability, T/C [32]: 43.9%
viability, T/C [33]: 70.3%
viability, T/C [34]: 74.1%
viability, T/C [35]: 73%
viability, T/C [36]: 77%

IC50 (second compound 0.0316 µM): > 10 µM
IC50 (second compound 0.1 µM): 9.34 µM
IC50 (second compound 0.316 µM): > 10 µM
IC50 (second compound 1 µM): > 10 µM
IC50 (second compound 3.16 µM): > 10 µM
IC50 (second compound 10 µM): > 10 µM
Compound: NC1c2ccccc2OC12CCN(c1cnc3c(N4CCCc5ncccc54)n[nH]c3n1)CC2 (stereo unspecified) + C#Cc1c(F)ccc2cc(O)cc(-c3ncc4c(N5CC6CCC(C5)N6)nc(OCC56CCCN5CC(F)C6)nc4c3F)c12
viability, T/C [1]: 113%
viability, T/C [2]: 108%
viability, T/C [3]: 96.7%
viability, T/C [4]: 79.7%
viability, T/C [5]: 90.1%
viability, T/C [6]: 63%
viability, T/C [7]: 86.7%
viability, T/C [8]: 86.2%
viability, T/C [9]: 94.7%
viability, T/C [10]: 79.1%
viability, T/C [11]: 94.3%
viability, T/C [12]: 47.6%
viability, T/C [13]: 94.2%
viability, T/C [14]: 120%
viability, T/C [15]: 105%
viability, T/C [16]: 76.2%
viability, T/C [17]: 83.5%
viability, T/C [18]: 58.4%
viability, T/C [19]: 95.9%
viability, T/C [20]: 92.4%
viability, T/C [21]: 87.5%
viability, T/C [22]: 99.6%
viability, T/C [23]: 104%
viability, T/C [24]: 54.2%
viability, T/C [25]: 71%
viability, T/C [26]: 90.4%
viability, T/C [27]: 90.1%
viability, T/C [28]: 84.3%
viability, T/C [29]: 84.9%
viability, T/C [30]: 77%
viability, T/C [31]: 85.3%
viability, T/C [32]: 22.6%
viability, T/C [33]: 67.2%
viability, T/C [34]: 82.7%
viability, T/C [35]: 65.3%
viability, T/C [36]: 67.2%

IC50 (second compound 0.0316 µM): < 0.00316 µM
IC50 (second compound 0.1 µM): < 0.00316 µM
IC50 (second compound 0.316 µM): < 0.00316 µM
IC50 (second compound 1 µM): < 0.00316 µM
IC50 (second compound 3.16 µM): < 0.00316 µM
IC50 (second compound 10 µM): < 0.00316 µM
Compound: Nc1ccn(C2OC(CO)C(O)C2(F)F)c(=O)n1 (stereo unspecified) + C#Cc1c(F)ccc2cc(O)cc(-c3ncc4c(N5CC6CCC(C5)N6)nc(OCC56CCCN5CC(F)C6)nc4c3F)c12
viability, T/C (second compound 0.0316 µM, first compound 0.00316 µM): 22.7%
viability, T/C (second compound 0.0316 µM, first compound 0.01 µM): 7.34%
viability, T/C [1]: 6.68%
viability, T/C [2]: 6.34%
viability, T/C [3]: 4.77%
viability, T/C [4]: 5.69%
viability, T/C (second compound 0.1 µM, first compound 0.00316 µM): 22.5%
viability, T/C (second compound 0.1 µM, first compound 0.01 µM): 6.75%
viability, T/C [7]: 6.72%
viability, T/C [8]: 5.71%
viability, T/C [9]: 5.49%
viability, T/C [10]: 4.87%
viability, T/C (second compound 0.316 µM, first compound 0.00316 µM): 22.3%
viability, T/C (second compound 0.316 µM, first compound 0.01 µM): 7.7%
viability, T/C [13]: 6.8%
viability, T/C [14]: 6.21%
viability, T/C [15]: 6.34%
viability, T/C [16]: 5.58%
viability, T/C (second compound 1 µM, first compound 0.00316 µM): 21.2%
viability, T/C (second compound 1 µM, first compound 0.01 µM): 7.84%
viability, T/C [19]: 5.78%
viability, T/C [20]: 6.95%
viability, T/C [21]: 6.05%
viability, T/C [22]: 5.2%
viability, T/C (second compound 3.16 µM, first compound 0.00316 µM): 18.1%
viability, T/C (second compound 3.16 µM, first compound 0.01 µM): 9.18%
viability, T/C [25]: 6.71%
viability, T/C [26]: 7.51%
viability, T/C [27]: 7.89%
viability, T/C [28]: 6.18%
viability, T/C (second compound 10 µM, first compound 0.00316 µM): 16%
viability, T/C (second compound 10 µM, first compound 0.01 µM): 3.49%
viability, T/C [31]: 5.23%
viability, T/C [32]: 3.11%
viability, T/C [33]: 5.48%
viability, T/C [34]: 4.28%
